≈ marks a conversion by molar mass, not a printed value. Where two headings read alike, the source gives them in different places.

Here are results for two compounds from US5510469A, “2-acyloxy-4-morpholinyl anthracyclines” (priority 1990, dated 1996).

Assay [1] deals with P388/DX (Johnson) Leukemias. As to the kind of experiment: Antitumor activity in vivo against P388 murine leukemia resistant to Doxorubicin (P388/DX, Johnson). To be noted: P388/DX 10^5 cells/mouse i.v. in CDF mice; treatment on day 1; at optimal dose: 1a 1.2 mg/kg, Doxorubicin 13-16.9 mg/kg. As to the method: Antitumor activity against P388/DX
^(1) 10^5 cells/mouse (P388/DX, Johnson) transplanted i.v. in CDF
Treatment on day 1 after inoculation of tumor.
^(3) Median survival time; % over […] controls.
Compound 1a was evaluated "in vivo" against P388 murine Leukemias resistant to Doxorubicin, in comparison with Doxorubicin.

The next assay deals with LoVo cells. Description: Colony assay (cytotoxicity after 4 hr treatment), LoVo cells. In kind it is cell-based. To be noted: Homo sapiens, read-out: IC50 (concentration inhibiting 50% colony growth), LoVo. As to the method: (§1) 3'-deamino-3' 2-benzoyl-4-morpholinyl!doxorubicin (1a) was tested "in vitro" against LoVo and LoVo-resistant-doxorubicin (LoVo/DX) cells using a single cell plating technique after 4 hr treatment (Colony assay). The 50% inhibition concentration (IC50) was calculated using concentration-response curves. Compound 1a was tested in comparison with Doxorubicin.
(§2) Cytotoxicity after 4 hr treatment IC50 = ng/ml^(1)
(§3) ^(1) IC50 = concentration inhibiting 50% colony growth

The subject of a further assay is LoVo/DX cells. As to the kind of experiment: Colony assay (cytotoxicity after 4 hr treatment), LoVo-resistant-doxorubicin (LoVo/DX) cells. Format: cell-based. As to conditions: for IC50: read-out: IC50 (concentration inhibiting 50% colony growth), LoVo/DX; for R.I. = Resistance Index = (IC50 LoVo/DX)/(IC50 LoVo): ratio LoVo/DX to LoVo. As to the method: as §1, §2, §3
^(2) R.I. = Resistance Index = (IC50 LoVo/DX)/(IC50 LoVo)

As for `COc1cccc2c1C(=O)c1c(O)c3c(c(O)c1C2=O)C[C@@](O)(C(=O)CO)C[C@@H]3O[C@H]1C[C@H](N)[C@H](O)[C@H](C)O1` [Doxorubicin, doxorubicin], the “T/C % (median survival time; % over treated controls)” value in assay [1] is listed as 86-100%. The IC50 with LoVo cells (LoVo cells, 4 hr treatment, colony assay) is 0.06 µg/mL (≈ 0.11 µM); in the assay on LoVo/DX cells (LoVo/DX cells, 4 hr treatment, colony assay) it was 2.16 µg/mL (≈ 3.97 µM). Further, the “R.I. = Resistance Index = (IC50 LoVo/DX)/(IC50 LoVo)” value in the assay with LoVo/DX cells (4 hr treatment) came out at 36.

For the compound `COc1cccc2c1C(=O)c1c(O)c3c(c(O)c1C2=O)C[C@@](O)(C(=O)CO)C[C@@H]3O[C@H]1C[C@H](N2CCOC(OC(=O)c3ccccc3)C2)[C@H](O)[C@H](C)O1` (some centres unmarked) [Compound 1a], the “T/C % (median survival time; % over treated controls)” value in assay [1] is reported as 175%. The IC50 is 0.0069 µg/mL (≈ 0.0094 µM) with LoVo cells (LoVo, 4 h) and 0.027 µg/mL (≈ 0.0368 µM) with LoVo/DX cells (LoVo/DX, 4 h). The “R.I. = Resistance Index = (IC50 LoVo/DX)/(IC50 LoVo)” value in the assay on LoVo/DX cells (4 hr treatment) is recorded as 3.9.
